Paper PMC8673672, “Synthesis and evaluation of radiogallium-labeled long-chain fatty acid derivatives as myocardial metabolic imaging agents” (PLoS ONE, 2021)
Blank lines part the entries; values can stand above or below the compound they belong to.

How the values were obtained:
[1] = Biodistribution study in normal mice; format: in vivo; settings: ddY mice, i.v.
Procedure: The animal experimental protocols used were approved by the Committee on Animal Experimentation of Kanazawa University (AP-204165). All experiments with animals were conducted in strict accordance with the Guidelines for the Care and Use of Laboratory Animals of Kanazawa University. Mice were housed together in individually ventilated cages with three mice per cage. The animals were housed at 23°C with a 12 h light/dark schedule with free access to a standardized mouse diet and provided drinking water ad libitum water. Autoclaved wood chips were applied as bedding material. The behavior of the mice during the experimental period was normal. Seventy-five ddY mice (male; 6-week-old; 29–33 g) were purchased from Japan SLC Inc., Hamamatsu, Japan. The mice were randomly divided into five groups (n = 15 mice per group) with five different time points for each group (n = 3 mice per time point).
Radiotracers, [^67Ga]5, [^67Ga]6, [^67Ga]7, or [^67Ga]8, in saline containing 5% ethanol and 0.1% tween-80, or [^123I]BMIPP (74 kBq/100 μL, respectively) was intravenously injected into mice via the tail. The ddY mice were sacrificed by decapitation at 0.5, 2, 5, 20, and 60 min. Tissues of interest were removed and weighed. The radioactivity of the tissues was determined using an auto well gamma counter. The data were expressed as percent injected dose per gram tissue (%ID/g).

[2] = design: method as in PMID 31869735; settings: Ga complex; cited from earlier work

Blood radioactivity ([1]; 0.5 min after injection): 20.30 (1.55) %ID/g | Bone radioactivity ([1]; 0.5 min after injection): 2.63 (0.33) %ID/g | Brain radioactivity ([1]; 0.5 min after injection): 0.51 (0.11) %ID/g | Kidney radioactivity ([1]; 0.5 min after injection): 5.21 (0.42) %ID/g | Large intestine radioactivity ([1]; 0.5 min after injection): 0.42 (0.07) %ID/g | Liver radioactivity ([1]; 0.5 min after injection): 12.44 (2.40) %ID/g | Lung radioactivity ([1]; 0.5 min after injection): 24.09 (4.19) %ID/g | Muscle radioactivity ([1]; 0.5 min after injection): 2.85 (0.69) %ID/g | Pancreas radioactivity ([1]; 0.5 min after injection): 2.43 (0.68) %ID/g | Small intestine radioactivity ([1]; 0.5 min after injection): 0.91 (0.15) %ID/g | Spleen radioactivity ([1]; 0.5 min after injection): 4.91 (1.27) %ID/g | Stomach radioactivity ([1]; 0.5 min after injection): 0.60 (0.11) %ID/organ | Heart uptake ([1]; 0.5 min after injection (initial myocardial uptake)): 21.36 (2.73) %ID/g | Blood radioactivity ([1]; 2 min after injection): 6.01 (0.74) %ID/g | Bone radioactivity ([1]; 2 min after injection): 1.97 (0.03) %ID/g | Brain radioactivity ([1]; 2 min after injection): 0.22 (0.03) %ID/g | Heart uptake ([1]; 2 min after injection): 27.60 (3.15) %ID/g | Kidney radioactivity ([1]; 2 min after injection): 5.27 (0.61) %ID/g | Large intestine radioactivity ([1]; 2 min after injection): 0.68 (0.14) %ID/g | Liver radioactivity ([1]; 2 min after injection): 21.35 (0.89) %ID/g | Lung radioactivity ([1]; 2 min after injection): 15.88 (1.94) %ID/g | Muscle radioactivity ([1]; 2 min after injection): 3.24 (0.49) %ID/g | Pancreas radioactivity ([1]; 2 min after injection): 6.11 (1.90) %ID/g | Small intestine radioactivity ([1]; 2 min after injection): 1.33 (0.23) %ID/g | Spleen radioactivity ([1]; 2 min after injection): 3.76 (1.18) %ID/g | Stomach radioactivity ([1]; 2 min after injection): 0.70 (0.17) %ID/organ | Blood radioactivity ([1]; 5 min after injection): 6.75 (1.07) %ID/g | Bone radioactivity ([1]; 5 min after injection): 2.29 (0.27) %ID/g | Brain radioactivity ([1]; 5 min after injection): 0.25 (0.03) %ID/g | Heart uptake ([1]; 5 min after injection): 28.03 (5.37) %ID/g | Kidney radioactivity ([1]; 5 min after injection): 5.93 (1.23) %ID/g | Large intestine radioactivity ([1]; 5 min after injection): 0.66 (0.11) %ID/g | Liver radioactivity ([1]; 5 min after injection): 16.33 (4.41) %ID/g | Lung radioactivity ([1]; 5 min after injection): 16.87 (3.08) %ID/g | Muscle radioactivity ([1]; 5 min after injection): 3.42 (1.06) %ID/g | Pancreas radioactivity ([1]; 5 min after injection): 5.66 (4.30) %ID/g | Small intestine radioactivity ([1]; 5 min after injection): 1.39 (0.27) %ID/g | Spleen radioactivity ([1]; 5 min after injection): 3.09 (1.26) %ID/g | Stomach radioactivity ([1]; 5 min after injection): 0.95 (0.28) %ID/organ | Blood radioactivity ([1]; 20 min after injection): 10.84 (0.20) %ID/g | Bone radioactivity ([1]; 20 min after injection): 2.66 (0.22) %ID/g | Brain radioactivity ([1]; 20 min after injection): 0.43 (0.07) %ID/g | Heart uptake ([1]; 20 min after injection): 23.41 (3.39) %ID/g | Kidney radioactivity ([1]; 20 min after injection): 8.03 (0.09) %ID/g | Large intestine radioactivity ([1]; 20 min after injection): 1.20 (0.04) %ID/g | Liver radioactivity ([1]; 20 min after injection): 6.54 (0.43) %ID/g | Lung radioactivity ([1]; 20 min after injection): 16.21 (1.50) %ID/g | Muscle radioactivity ([1]; 20 min after injection): 3.51 (0.21) %ID/g | Pancreas radioactivity ([1]; 20 min after injection): 9.80 (3.25) %ID/g | Small intestine radioactivity ([1]; 20 min after injection): 1.97 (0.11) %ID/g | Spleen radioactivity ([1]; 20 min after injection): 1.73 (0.55) %ID/g | Stomach radioactivity ([1]; 20 min after injection): 1.06 (0.05) %ID/organ | Blood radioactivity ([1]; 60 min after injection): 10.38 (2.03) %ID/g | Bone radioactivity ([1]; 60 min after injection): 2.42 (0.33) %ID/g | Brain radioactivity ([1]; 60 min after injection): 0.39 (0.04) %ID/g | Heart uptake ([1]; 60 min after injection): 20.92 (3.67) %ID/g | Kidney radioactivity ([1]; 60 min after injection): 6.24 (0.62) %ID/g | Large intestine radioactivity ([1]; 60 min after injection): 1.20 (0.15) %ID/g | Liver radioactivity ([1]; 60 min after injection): 4.34 (0.61) %ID/g | Lung radioactivity ([1]; 60 min after injection): 13.11 (3.05) %ID/g | Muscle radioactivity ([1]; 60 min after injection): 3.87 (0.80) %ID/g | Pancreas radioactivity ([1]; 60 min after injection): 8.04 (3.89) %ID/g | Small intestine radioactivity ([1]; 60 min after injection): 1.88 (0.29) %ID/g | Spleen radioactivity ([1]; 60 min after injection): 1.68 (0.81) %ID/g | Stomach radioactivity ([1]; 60 min after injection): 1.06 (0.17) %ID/organ
Structure (SMILES): CC(CCCCCCCCCCCCc1ccc([123I])cc1)CC(=O)O (stereo not drawn) [[^123I]BMIPP, β-methyl [^123I]iodophenyl-pentadecanoic acid]

Structure (SMILES): O=C([O-])CN1CCN(CC(=O)[O-])CCN(CC(=O)O)CCN(CC(=O)[O-])CC1.[Ga+3] [Ga-DOTA]
Stability constant (log K) [2]: 21.3
